Measured values reported in US20220370464A1, “COMPOSITIONS AND METHODS OF TREATING OR PREVENTING OCULAR INFECTIONS WITH FILOCICLOVIR” (Microbiotix, Inc., priority 2019, published 2022).
Read-outs that look alike come from different tables or passages of the source.

How the values were obtained:
[1] = tested on: human foreskin fibroblast (HFF) cells; assay: Cytotoxicity, CellTiter-Glo cell viability in HFF cells
Procedure: (§1) Human foreskin tissue was obtained from the University of Alabama at Birmingham tissue procurement facility with approval from the Institutional Review Board. The tissue was stored at 4° C. in cell culture medium consisting of minimum essential media (MEM) with Earle's salts supplemented with 10% fetal bovine serum (FBS; HyClone, Inc., Logan, Utah) and standard concentration of L-glutamine, amphotericin B (Fungizone), and vancomycin. The tissue was then placed in a phosphate-buffered saline solution, minced, and rinsed to remove the red blood cells. Tissue fragments were then resuspended in a trypsin-EDTA solution and incubated at 37° C. to disperse the cells, which were then collected by centrifugation. Cell pellets were then resuspended in 4 ml culture medium, placed in a 25-cm^2 tissue culture flask, and incubated at 37° C. for 24 h. The culture medium was then replaced with fresh medium and condition of the cells was monitored daily until a confluent cell monolayer was formed. The HFF cells were then expanded through serial passages in standard growth medium of MEM with Earle's salts supplemented with 10% FBS, L-glutamine, penicillin, and gentamicin. Each lot of cells was confirmed to be free of mycoplasma infection and routinely passaged or used for assays at or before passage 10.
(§2) Antiviral and cytotoxicity data were obtained in a series of three to five separate experiments for each virus to provide an accurate estimate of antiviral activity and statistical data. Each assay included positive and negative control compounds as well as infected and uninfected controls to ensure the integrity of the experiment.
(§3) The CPE reduction assays were performed in monolayers of human foreskin fibroblast (HFF) cells (5000/well) in 384-well plates in assay media consisting of MEM with Earle's salts, 2% FBS and standard concentrations of L-glutamine, penicillin and gentamycin. 5000 cells were seeded in 384-well microtiter plates and incubated at 37° C. in a humidified 5% CO2 incubator for 24 hours to allow for formation of confluent monolayers.
(§4) Cell monolayers were infected at a multiplicity of infection (MOI) of approximately 0.005 PFU/cell with virus strains including AdV5. […] Cytopathology was determined by the addition of CellTiter-Glo® reagent (Promega, Madison, Wis.).

[2] = tested on: Adenovirus 5 (AdV5); assay: Cytopathic effects (CPE) reduction assay, AdV5 in HFF cells, 384-well; format: cell-based, human adenovirus 5 (AdV5); conditions: for EC50: AdV 384 Well CPE, HFF cells, average and SD from five independent experiments
Procedure: Cell monolayers were infected at a multiplicity of infection (MOI) of approximately 0.005 PFU/cell with virus strains including AdV5. […] Cytopathology was determined by the addition of CellTiter-Glo® reagent (Promega, Madison, Wis.). Concentrations of antiviral test compounds sufficient to reduce CPE by 50% (EC50) were interpolated from the experimental data using standard methods in Microsoft® Excel.

[3] = Cytotoxicity, CellTiter-Glo cell viability in HFF cells; conditions: human, human foreskin fibroblast (HFF) cells
Procedure: as §1, §2, §3, §4

[4] = tested on: ocular AdV infections; conditions: topical, literature; cited from earlier work
[5] = HFF cells, 384-well, average and SD from five independent experiments

Row | Compound | CC50 [1, 5] | EC50 [2] | other results
1 | O=c1[nH]c(=S)c(I)cn1[C@H]1C[C@H](O)[C@@H](CO)O1 [4-thio-IDU, 4-thioidoxuridine] | 26 ± 24 µM |  | EC50 ([2]; Human mastadenovirus C): 11 ± 9.4 µM
2 | Nc1nc2c(ncn2COCCO)c(=O)[nH]1 [ACV, acyclovir] |  |  | CC50 [3]: > 100 µM
3 | OC[C@H]1O[C@@H](n2c(Br)nc3cc(Cl)c(Cl)cc32)[C@H](O)[C@@H]1O [BDCRB, bromodichlororibobenzimidazole] | 91 ± 13 µM | 70 ± 39 µM | 
4 | O=c1[nH]c(=O)n([C@@H]2O[C@H](CO)[C@@H](O)[C@@H]2F)cc1I [FIAU] |  | > 100 µM | CC50 [1]: > 100 µM
5 | Nc1nc(O)c2ncn(COC(CO)CO)c2n1 [GCV, ganciclovir] |  |  | efficacy in the treatment of AdV conjunctivitis in clinical trials [4]: lacks efficacy; CC50 [3]: > 100 µM; selectivity ratio ([2]; human, adenovirus 5, HFF cells, read-out: SI (selective index, CC50/EC50)): ≥ 1.5
6 | O=c1[nH]c(=O)n([C@@H]2CO[C@H](CO)O2)cc1/C=C/Br [L-BHDU, L-Bromovinyl-Hydroxymethyl-Dioxolan Uracil] |  | > 100 µM | CC50 [1]: > 100 µM
7 | Cc1cn([C@H]2C[C@H](O)[C@]3(CO)C[C@H]23)c(=O)[nH]c1=O [N-MCT, N-methanocarbathymidine] | 72 ± 33 µM | 57 ± 47 µM | 
8 | Nc1ncnc2c1ncn2CCOCP(=O)(O)O [PMEA, adefovir] | > 100 µM |  | 
